# Like-named read-outs stand apart in the source and are kept apart here. No end group written: not given here.
# System: infection of CD4+ human cells (CD4 expressing Hela P4 cells) by HIV-1
# Type: cell-based
# Details: for IC50: FIG. 3; for relative infection inhibition activity within the peptide set: peptides assayed at 100 μg/ml, FIG. 2 / FIG. 6
# Description: Biological Activity Results of C2 peptide analogs Cell Infection Inhibition Assay The assay consisted of CD4 expressing Hela P4 cells containing the […] reporter gene placed downstream the HIV-LTR promotor. These cells, were seeded 24 hours prior to viral infection at a density of 5×10^5 […] in 24 well culture plates (TPP model by Beyneix). 50 μL of virus solution prepared from CEM infected cells' supernatant, were incubated for 1 hour with the assayed peptides at the required concentrations, at 4° C. 10 μg of anti CD4 monoclonal antibodies 13B8.2 or Leu3A were used as control. After incubation the virus solution was diluted to a total volume of 1 ml and was added to the Hela P4 cells. The cells were incubated at these conditions for 3 days after which their infection rate was assayed according to the […] activity in the cells extract.
# The cells were washed well, harvested and disintegrated in a buffer containing 60 mM Na2HPO4, 40 mM NaH2PO4, 10 mM KCl, 1 mM MgSO4, 50 mM β-mercaptoethanol, 2.5 mM EDTA, 0.125% NP40, 0.125% triton, 20% glycerol, 0.2 mM PMSF and 100 U/ml approtinin. The cells extract was cleaned by centrifuge at 4° C. for 15 min at 13,000 rpm. β-galactosidase activity was determined by incubation of 150 μL of total cell extract at 37° C. for 2 hours in the presence of 6 mM ONPG (O-Nitrophenyl-β-D-galactopyranoside) in a buffer containing 80 mM Na2HPO4, 1 mM β-mercaptoethanol and 10 mMMgCl2, followed by absorption measurement at 410 nm. The β-galactosidase activity was normalized according to the total protein quantity in the assay.
# This figure includes, for comparison, the inhibition of the lead peptide C2-1, as determined in the cell infection inhibition assay.
# [1] = average of peptides C2-2 and C2-3, Hela P4 cells, read-out: average IC50 value
Molecule,IC50 [1] [µM],relative infection inhibition activity within the peptide set,"inhibition of infection (C3 peptides, FIG. 6: assayed at 100 μg/ml, mean of 3 assays, text: C3-25 at 100 μM) [%]","IC50 (CD4 expressing Hela P4 cells, several concentrations, read-out: IC50 (infection inhibition)) [µM]"
N=C(N)NCCC[C@@H]1NC(=O)CCCC(=O)N[C@@H](CCC(N)=O)C(=O)NCC(=O)N[C@@H](CO)C(=O)N[C@@H](Cc2ccccc2)C(=O)N(CC(N)=O)CCNC1=O [Peptide C2-2],81 ± 2,most active,–,–
C3-19: backbone cyclic C3 peptide of Scheme 1 (SEQ ID NO:7) (RQGSGF; also: backbone cyclic) [Peptide C3-19],–,–,64±12,–
N=C(N)NCCC[C@@H]1NC(=O)CCCCC(=O)N[C@@H](CCC(N)=O)C(=O)NCC(=O)N[C@@H](CO)C(=O)N[C@@H](Cc2ccccc2)C(=O)N(CC(N)=O)CCNC1=O [Peptide C2-3],81 ± 2,most active,–,–
N=C(N)NCCC[C@@H]1NC(=O)CCC(=O)N[C@@H](CCC(N)=O)C(=O)NCC(=O)N[C@@H](CO)C(=O)N[C@@H](Cc2ccccc2)C(=O)N(CC(N)=O)CCNC1=O [Peptide C2-1],–,most active,–,33
